# Assay results from ChEMBL document CHEMBL3045446, “In vitro antimicrobial and antimycobacterial activity of some chalcones and their derivatives” (2013).
# Tests used:
# Type in all cases: functional
# Pseudomonas aeruginosa [1] = experiment: Antimicrobial activity against Pseudomonas aeruginosa MTCC 741 assessed as diameter of growth inhibition zone after 24 hr
# [2] = test system: Mycobacterium tuberculosis; experiment: Antituberculosis activity against Mycobacterium tuberculosis H37Rv assessed as growth inhibition after 12 to 28 days by L-J MIC method; conditions: for MIC: Mycobacterium tuberculosis, H37Rv
# Klebsiella pneumoniae [3] = experiment: Antimicrobial activity against Klebsiella pneumoniae MTCC 109 assessed as growth inhibition after 24 hr by agar streak dilution method; conditions: MTCC 109, 24 h
# Candida albicans [4] = experiment: Antimicrobial activity against Candida albicans MTCC 183 assessed as diameter of growth inhibition zone after 48 hr; also: test concentration or dose not given here
# Shigella flexneri [5] = experiment: Antimicrobial activity against Shigella flexneri MTCC1457 assessed as diameter of growth inhibition zone after 24 hr
# Klebsiella pneumoniae [6] = experiment: Antimicrobial activity against Klebsiella pneumoniae MTCC 109 assessed as diameter of growth inhibition zone after 24 hr; also: test concentration or dose not given here
# Aspergillus niger [7] = experiment: Antimicrobial activity against Aspergillus niger MTCC 282 assessed as growth inhibition after 48 hr by agar streak dilution method; conditions: MTCC 282, 48 h
# Proteus vulgaris [8] = experiment: Antimicrobial activity against Proteus vulgaris MTCC 1771 assessed as growth inhibition after 24 hr by agar streak dilution method; conditions: MTCC 1771, 24 h
# Pseudomonas aeruginosa [9] = experiment: Antimicrobial activity against Pseudomonas aeruginosa MTCC 741 assessed as growth inhibition after 24 hr by agar streak dilution method; conditions: MTCC 741, 24 h
# Staphylococcus aureus [10] = experiment: Antimicrobial activity against Staphylococcus aureus MTCC 96 assessed as diameter of growth inhibition zone after 24 hr; also: test concentration or dose not given here
# Salmonella typhi [11] = experiment: Antimicrobial activity against Salmonella enterica subsp. enterica serovar Typhi MTCC 733 assessed as growth inhibition after 24 hr by agar streak dilution method; conditions: MTCC 733, 24 h
# Bacillus cereus [12] = experiment: Antimicrobial activity against Bacillus cereus MTCC 430 assessed as diameter of growth inhibition zone after 24 hr; also: test concentration or dose not given here
# Aspergillus clavatus [13] = experiment: Antimicrobial activity against Aspergillus clavatus MTCC 1323 assessed as growth inhibition after 48 hr by agar streak dilution method; conditions: MTCC 1323, 48 h
# Escherichia coli [14] = experiment: Antimicrobial activity against Escherichia coli MTCC 739 assessed as diameter of growth inhibition zone after 24 hr; also: test concentration or dose not given here
# Aspergillus niger [15] = experiment: Antimicrobial activity against Aspergillus niger MTCC 282 assessed as diameter of growth inhibition zone after 48 hr; also: test concentration or dose not given here
# Bacillus cereus [16] = experiment: Antimicrobial activity against Bacillus cereus MTCC 430 assessed as growth inhibition after 24 hr by agar streak dilution method; conditions: MTCC 430, 24 h
# Shigella flexneri [17] = experiment: Antimicrobial activity against Shigella flexneri MTCC1457 assessed as growth inhibition after 24 hr by agar streak dilution method; conditions: MTCC1457, 24 h
# Escherichia coli [18] = experiment: Antimicrobial activity against Escherichia coli MTCC 739 assessed as growth inhibition after 24 hr by agar streak dilution method; conditions: MTCC 739, 24 h
# Candida albicans [19] = experiment: Antimicrobial activity against Candida albicans MTCC 183 assessed as growth inhibition after 48 hr by agar streak dilution method; conditions: MTCC 183, 48 h
# Salmonella typhi [20] = experiment: Antimicrobial activity against Salmonella enterica subsp. enterica serovar Typhi MTCC 733 assessed as diameter of growth inhibition zone after 24 hr
# Aspergillus fumigatus [21] = experiment: Antimicrobial activity against Aspergillus fumigatus MTCC 343 assessed as diameter of growth inhibition zone after 48 hr; also: test concentration or dose not given here
# Staphylococcus aureus [22] = experiment: Antimicrobial activity against Staphylococcus aureus MTCC 96 assessed as growth inhibition after 24 hr by agar streak dilution method; conditions: MTCC 96, 24 h
# Aspergillus clavatus [23] = experiment: Antimicrobial activity against Aspergillus clavatus MTCC 1323 assessed as diameter of growth inhibition zone after 48 hr; also: test concentration or dose not given here
# Aspergillus fumigatus [24] = experiment: Antimicrobial activity against Aspergillus fumigatus MTCC 343 assessed as growth inhibition after 48 hr by agar streak dilution method; conditions: MTCC 343, 48 h
# Proteus vulgaris [25] = experiment: Antimicrobial activity against Proteus vulgaris MTCC 1771 assessed as diameter of growth inhibition zone after 24 hr
Structure (SMILES),diameter of the inhibition zone (DIZ) (Pseudomonas aeruginosa [1]) [mm],growth inhibition (GI) [2] [%],MIC [2] [µg/mL],MIC (Klebsiella pneumoniae [3]) [µg/mL],diameter of the inhibition zone (DIZ) (Candida albicans [4]) [mm],diameter of the inhibition zone (DIZ) (Shigella flexneri [5]) [mm],diameter of the inhibition zone (DIZ) (Klebsiella pneumoniae [6]) [mm],MIC (Aspergillus niger [7]) [µg/mL],MIC (Proteus vulgaris [8]) [µg/mL],MIC (Pseudomonas aeruginosa [9]) [µg/mL],diameter of the inhibition zone (DIZ) (Staphylococcus aureus [10]) [mm],MIC (Salmonella typhi [11]) [µg/mL],diameter of the inhibition zone (DIZ) (Bacillus cereus [12]) [mm],MIC (Aspergillus clavatus [13]) [µg/mL],diameter of the inhibition zone (DIZ) (Escherichia coli [14]) [mm],diameter of the inhibition zone (DIZ) (Aspergillus niger [15]) [mm],MIC (Bacillus cereus [16]) [µg/mL],MIC (Shigella flexneri [17]) [µg/mL],MIC (Escherichia coli [18]) [µg/mL],MIC (Candida albicans [19]) [µg/mL],also measured
Nc1nc(-c2ccc(Nc3cc(=O)oc4ccccc34)cc2)cc(-c2ccccc2O)n1,18,97,250,12.5,18,20,21,25,50,50,18,100,19,6.25,19,21,50,25,50,50,diameter of the inhibition zone (DIZ) (Salmonella typhi [20]): 17 mm; diameter of the inhibition zone (DIZ) (Aspergillus fumigatus [21]): 23 mm; MIC (Staphylococcus aureus [22]): 50 µg/mL; diameter of the inhibition zone (DIZ) (Aspergillus clavatus [23]): 25 mm; MIC (Aspergillus fumigatus [24]): 12.5 µg/mL; diameter of the inhibition zone (DIZ) (Proteus vulgaris [25]): 19 mm
Nc1nc(-c2ccc(Nc3cc(=O)oc4ccccc34)cc2)cc(-c2ccc([N+](=O)[O-])cc2)n1,16,96,500,50,19,16,18,50,100,100,15,25,16,25,17,17,100,100,100,50,diameter of the inhibition zone (DIZ) (Salmonella typhi [20]): 21 mm; diameter of the inhibition zone (DIZ) (Aspergillus fumigatus [21]): 16 mm; MIC (Staphylococcus aureus [22]): 100 µg/mL; diameter of the inhibition zone (DIZ) (Aspergillus clavatus [23]): 20 mm; MIC (Aspergillus fumigatus [24]): 100 µg/mL; diameter of the inhibition zone (DIZ) (Proteus vulgaris [25]): 14 mm
O=C(/C=C/c1ccc(Cl)cc1)c1ccc(Nc2cc(=O)oc3ccccc23)cc1,10,95,1000,50,15,18,20,100,100,100,18,100,14,100,12,12,100,50,100,100,diameter of the inhibition zone (DIZ) (Salmonella typhi [20]): 15 mm; diameter of the inhibition zone (DIZ) (Aspergillus fumigatus [21]): 14 mm; MIC (Staphylococcus aureus [22]): 50 µg/mL; diameter of the inhibition zone (DIZ) (Aspergillus clavatus [23]): 14 mm; MIC (Aspergillus fumigatus [24]): 100 µg/mL; diameter of the inhibition zone (DIZ) (Proteus vulgaris [25]): 17 mm
N#Cc1c(-c2ccccc2O)cc(-c2ccc(Nc3cc(=O)oc4ccccc34)cc2)nc1N,24,97,25,3.12,24,21,28,12.5,12.5,12.5,21,6.25,22,6.25,24,25,12.5,12.5,12.5,25,diameter of the inhibition zone (DIZ) (Salmonella typhi [20]): 25 mm; diameter of the inhibition zone (DIZ) (Aspergillus fumigatus [21]): 25 mm; MIC (Staphylococcus aureus [22]): 12.5 µg/mL; diameter of the inhibition zone (DIZ) (Aspergillus clavatus [23]): 27 mm; MIC (Aspergillus fumigatus [24]): 6.25 µg/mL; diameter of the inhibition zone (DIZ) (Proteus vulgaris [25]): 22 mm
